# Results published in patent US11241475B2, “Preventive and/or therapeutic agent for osteogenesis imperfecta and other diseases” (Pharma Foods International Co., Ltd., priority 2016, dated 2022).
# No end group written: not given here.
# Key:
# [1] = Effect on body weight (Example 7); format: in vivo; details: rats, days 1, 3, 5 and 7; peptide 1, 10 or 100 mg/kg/day oral, hGH 500 μg/kg/day subcutaneous; FIG. 24
# Description: The synthetic peptide No. 1 or water for injection (control) was administered to male Crlj:WI rats at the age of four weeks by oral gavage using a gastric tube once a day for seven days (n=10 in each group). The dosage of the synthetic peptide was 1, 10 or 100 mg/kg/day. As a positive control, human growth hormone (hGH) (Norditropin, Japan Standard Commodity Classification Number: 872412) was subcutaneously administered at 500 μg/kg/day once a day for seven days. The body weight was measured on days 1, 3, 5 and 7 of administration.
# [2] = Digestion test using artificial intestinal juice (Example 11); format: in vitro ADME; details: 10 mg in 1 mL, pancreatin, pH 6.8, 37° C., 120 minutes and overnight, HPLC; FIG. 36
# Description: Ten milligrams of the synthetic peptide No. 1 was dissolved in 1 mL of artificial intestinal juice (0.34% KH2PO4, 0.36% Na2HPO4, 1% pancreatin, adjusted to pH 6.8), and the mixture was allowed to react under shaking at 37° C. Samples were collected before the reaction, 120 minutes after the reaction and after overnight reaction, and subjected to HPLC [column: ODS column (size: diameter 46 mm×500 mm, SHIMADZU); mobile phase: (A) 0.05% TFA, (B) 90% acetonitrile/0.05% TFA; gradient: 2% B (0 min), 20% B (50 min), 100% B (50.1 min), 100% B (55 min); detection: UV 215 nm] to examine whether the synthetic peptide No. 1 was decomposed by the intestinal juice (resistance to the intestinal juice).
# [3] = Digestion test using artificial gastric juice (Example 11); format: in vitro ADME; details: 10 mg in 1 mL, pepsin, pH 3.0, 37° C., 60 and 120 minutes, HPLC; FIG. 35
# Description: A test using artificial gastric juice was performed on the synthetic peptide No. 1. Ten milligrams of the synthetic peptide No. 1 was dissolved in 1 mL of artificial gastric juice (0.2% NaCl, 0.32% pepsin, 2.4% diluted hydrochloric acid, adjusted to pH 3.0), and the mixture was allowed to react under shaking at 37° C. Samples were collected before the reaction and 60 and 120 minutes after the reaction, and subjected to HPLC [column: ODS column (size: diameter 46 mm×500 mm, SHIMADZU); mobile phase: (A) 0.05% TFA, (B) 90% acetonitrile/0.05% TFA; gradient: 2% B (0 min), 20% B (50 min), 100% B (50.1 min), 100% B (55 min); detection: UV 215 nm] to examine whether the synthetic peptide No. 1 was decomposed by the gastric juice (resistance to the gastric juice).
sequence,measurement,setting,value
"VNPESEEE [synthetic peptide No. 1, Val-Asn-Pro-Glu-Ser-Glu-Glu-Glu]",change in the body weight,[1],No significant change
same,decomposition by artificial intestinal juice (resistance to the intestinal juice),[2],totally decomposed into a peptide having the sequence of the synthetic peptide No. 2
same,decomposition by artificial gastric juice (resistance to the gastric juice),[3],not decomposed
